Measured values taken from publication PMC3532212 (PLoS ONE, 2012).

Experiments:
[1] = Plasma concentrations in repeat-dosing study, satellite rats; format: in vivo, rat; details: for concentration at 4 h / concentration at 8 h / concentration at 24 h: male, Sprague Dawley, rat, plasma, po, mean±SEM; for Plasma concentration at Tmax (4 hrs) / Terminal plasma concentration at Tmax: satellite rats; for Plasma concentration at Tmax (4 hrs): day 1; for Terminal plasma concentration at Tmax: last day of study
Protocol: (§1) Mean arterial pressure was assessed in conscious, freely moving male Sprague Dawley rats (n = 6–8/group; Charles River) instrumented with telemetry transmitters (DSI-Ponemah) and housed in metabolism cages as previously described, [26]. Tested compounds were solubilized in a 0.5% Methylcellulose/0.015% Tween 80 vehicle that was also dosed alone (p.o./QD, 5 mL/kg) as a control in the study. FTY720 was administered p.o. at 0.3, 1.0, 3.0, 10.0 mg/kg p.o. as a single dose or p.o./QD at 0.5, 1.5, and 5.0 mg/kg in a chronic study. BAF312 was administered p.o/QD at 0.3, 3.0, and 30 mg/kg as a single dose and in a chronic study. Mean arterial pressure and heart rate are shown as 1-hr and/or 24-hr mean values±SEM as described in the results. Blood samples in satellite rats were withdrawn at various timepoints as described in the results for analysis of plasma concentrations of the parent compound and, in the case of FTY720, also the phosphorylated metabolite, (S)-FTY720-P. Statistical analysis for the single-dose acute studies was based on one-way ANOVA to compare the treatment groups vs. vehicle for each time period after dosing (0–24 hrs, 24–48 hrs, and 48–72 hrs); statistical significance (p<0.05) was detected by Dunnett’s post-hoc test to compare treatment with vehicle controls. The statistical analysis in the chronic studies were based on one-way ANOVA with repeated measures to compare the treatment arms; statistical significance (p<0.05) was detected by Dunnett’s post-hoc test to compare treatment with vehicle controls.

[2] = tested on: conscious, telemetry-instrumented rats; experiment: Telemetry-instrumented conscious rats, single oral dose hemodynamics; format: in vivo; details: conscious rat, BAF312 0.3, 3.0, 30 mg/kg single oral dose
Protocol: as §1

[3] = Plasma concentrations during escalating i.v. infusion in anesthetized rats; format: in vivo; details: male, Sprague Dawley, plasma, iv, anesthetized rat, BAF312 i.v.
Protocol: The cardiovascular effects of FTY720 and BAF312 were tested in anesthetized rats (180–200 g). In brief, male Sprague Dawley rats (Charles River) were anesthetized with Inactin (110 mg/kg i.p.) and a tracheotomy performed. The femoral artery and veins were catheterized for measurement of mean arterial pressure and heart rate, collection of blood samples at 20-min intervals (0.2 mL/sample), and for compound infusion/hydration as previously described, [24]; blood samples were also withdrawn in vehicle-treated control rats. FTY720, infused as a hydrochloride salt (0.1, 0.3, 1.0 mg/kg/20-min free base equivalent solubilized in a 100% PEG-400 vehicle), or BAF312 (0.5, 1.5, 5.0 mg/kg/20-min solubilized in a 100% PEG-400 vehicle) were administered via three escalating 20-min infusions (0.011 mL/min) followed by a 1-hr post-treatment period. A blood sample was withdrawn at 20, 40, 60, and 120-minutes for analysis of plasma concentrations of the parent compound, and in the case of FTY720, also the phosphorylated metabolite, (S)-FTY720-P. Statistical significance (p<0.05) was based on a t-test comparing treatment change from baseline (baseline was defined as the period from −30 to 0 minutes) vs. vehicle controls change from baseline at each timepoint without adjustment for multiple comparisons. In a separate group of anesthetized rats in which left ventricular (LV) contractility was also recorded with a Millar pressure transducer introduced into the left ventricle, BAF312 was infused in the same dosing regimen as the studies described above (0.5, 1.5, 5.0 mg/kg/20-min solubilized in a 100% PEG-400 vehicle) and effects on LV dP/dtmax were recorded.

concentration at 4 h ([1]; 0.3 mg/kg/day, BAF312 0.3 mg/kg/d p.o., Terminal (last day), 4 hr post-dose): 81 ± 8 nM | concentration at 8 h ([1]; 0.3 mg/kg/day, BAF312 0.3 mg/kg/d p.o., Terminal (last day), 8 hr post-dose): 54 ± 7 nM | concentration at 24 h ([1]; 0.3 mg/kg/day, BAF312 0.3 mg/kg/d p.o., Terminal (last day), 24 hr post-dose): 13 ± 6 nM | concentration at 4 h ([1]; 0.3 mg/kg/day, BAF312 0.3 mg/kg/d p.o., Day 1, 4 hr post-dose): 91 ± 7 nM | concentration at 8 h ([1]; 0.3 mg/kg/day, BAF312 0.3 mg/kg/d p.o., Day 1, 8 hr post-dose): 65 ± 8 nM | concentration at 24 h ([1]; 0.3 mg/kg/day, BAF312 0.3 mg/kg/d p.o., Day 1, 24 hr post-dose): 0 nM | concentration at 4 h ([1]; 3 mg/kg/day, BAF312 3.0 mg/kg/d p.o., Terminal (last day), 4 hr post-dose): 735 ± 73 nM | concentration at 8 h ([1]; 3 mg/kg/day, BAF312 3.0 mg/kg/d p.o., Terminal (last day), 8 hr post-dose): 480 ± 33 nM | concentration at 24 h ([1]; 3 mg/kg/day, BAF312 3.0 mg/kg/d p.o., Terminal (last day), 24 hr post-dose): 98 ± 8 nM | concentration at 4 h ([1]; 3 mg/kg/day, BAF312 3.0 mg/kg/d p.o., Day 1, 4 hr post-dose): 685 ± 113 nM | concentration at 8 h ([1]; 3 mg/kg/day, BAF312 3.0 mg/kg/d p.o., Day 1, 8 hr post-dose): 584 ± 81 nM | concentration at 24 h ([1]; 3 mg/kg/day, BAF312 3.0 mg/kg/d p.o., Day 1, 24 hr post-dose): 103 ± 9 nM | concentration at 4 h ([1]; 30 mg/kg/day, BAF312 30.0 mg/kg/d p.o., Terminal (last day), 4 hr post-dose): 8330 ± 650 nM | concentration at 8 h ([1]; 30 mg/kg/day, BAF312 30.0 mg/kg/d p.o., Terminal (last day), 8 hr post-dose): 5280 ± 443 nM | concentration at 24 h ([1]; 30 mg/kg/day, BAF312 30.0 mg/kg/d p.o., Terminal (last day), 24 hr post-dose): 942 ± 117 nM | concentration at 4 h ([1]; 30 mg/kg/day, BAF312 30.0 mg/kg/d p.o., Day 1, 4 hr post-dose): 6400 ± 390 nM | concentration at 8 h ([1]; 30 mg/kg/day, BAF312 30.0 mg/kg/d p.o., Day 1, 8 hr post-dose): 4820 ± 617 nM | concentration at 24 h ([1]; 30 mg/kg/day, BAF312 30.0 mg/kg/d p.o., Day 1, 24 hr post-dose): 721 ± 211 nM | Plasma concentration at Tmax (4 hrs) ([1]; BAF312 0.3 mg/kg/d p.o.): 91 ± 7 nM | Terminal plasma concentration at Tmax ([1]; BAF312 0.3 mg/kg/d p.o.): 81 ± 8 nM | Plasma concentration at Tmax (4 hrs) ([1]; BAF312 3.0 mg/kg/d p.o.): 685 ± 113 nM | Terminal plasma concentration at Tmax ([1]; BAF312 3.0 mg/kg/d p.o.): 735 ± 73 nM | Plasma concentration at Tmax (4 hrs) ([1]; BAF312 30 mg/kg/d p.o.): 6395 ± 390 nM | Terminal plasma concentration at Tmax ([1]; BAF312 30 mg/kg/d p.o.): 8328 ± 650 nM | concentration at 20 min ([3]; end of 0.5 mg/kg/20 min infusion): 1430 ± 707 nM | concentration at 40 min ([3]; end of 1.5 mg/kg/20 min infusion): 3220 ± 210 nM | concentration at 60 min ([3]; end of 5.0 mg/kg/20 min infusion): 7250 ± 517 nM | concentration at 120 min ([3]; end of 60-min post-treatment period): 2820 ± 276 nM
SMILES: CCc1cc(/C(C)=N/OCc2ccc(C3CCCCC3)c(C(F)(F)F)c2)ccc1CN1CC(C(=O)O)C1 [BAF312]
effect on heart rate [2]: no statistically significant effect | effect on mean arterial pressure [2]: no statistically significant effect
